Results: patent publication US7820439B2, “In vitro generation of GABAergic neurons from pluripotent stem cells” (Reliance Life Sciences PVT Ltd., priority 2003, dated 2010)

Tested on: neuronal progenitor cells derived from murine ES cells
Test: Differentiation of neuronal progenitor cells into GABAergic neurons in differentiation media containing Ara-C
Format: cell-based
Description: The expanded neuronal progenitor cells were differentiated by culturing the cells in a differentiation media containing Neurobasal A medium (Gibco), FCS (10-20%) (HYCLONE), and B27 supplement (2-10%) (Gibco), but no β-FGF. Additionally, the differentiation media contained factors to enhance GABAergic neuron yield, preferably Ara-C (Sigma Chemical Co. USA). […] After 3 days of culture in the differentiation media containing Ara-C, the cells were grown in the same media without Ara-C for 8, 12, or 16 days. When the neuronal progenitor cells were cultured in differentiation media containing Ara-C for 3 days, and the cells were then grown in differentiation media without Ara-C for 16 days, at least about 60% of the neuronal progenitor cells differentiated into GABAergic neurons (FIG. 6).
The differentiated neuronal cell types generated according to the present disclosure were evaluated both by the overall morphology of the cells, as well as the phenotypes identified by immunoflourescence. […]
The cells were then incubated overnight at 4° C. with a primary antibody (antibody dilution was made in 1% BSA). […] The chamber slides were observed under fluorescence microscope to evaluate the immunopositive cells in the different stages of differentiation. […]

Substance: cytosine β-d-Arabino furanoside [Ara-C]
- percentage of GABAergic neurons in the neuronal population derived from murine ES cells (Ara-C 20 ug/ml in differentiation media): increased the percentage of GABAergic neurons
- neuronal progenitor cells differentiated into GABAergic neurons (differentiation media containing Ara-C for 3 days, then without Ara-C for 16 days (FIG. 6)): at least 60%
